Ends that are not written are not given here.
Experiments:
ADGRF1 = biological target: T1, ADGRF1 (Homo sapiens, UniProt Q5T601, F690A); assay: BRET assay using TRUPATH biosensors, Gs activation of ADGRF1; format: cell-based; conditions: Gs, ADGRF1 F690^ICL2A, n = 3
T1 construct: Flag (N); expressed in transfected cells; host or cells: HEK293F
T1 sequence (Q5T601 20-910 F690A): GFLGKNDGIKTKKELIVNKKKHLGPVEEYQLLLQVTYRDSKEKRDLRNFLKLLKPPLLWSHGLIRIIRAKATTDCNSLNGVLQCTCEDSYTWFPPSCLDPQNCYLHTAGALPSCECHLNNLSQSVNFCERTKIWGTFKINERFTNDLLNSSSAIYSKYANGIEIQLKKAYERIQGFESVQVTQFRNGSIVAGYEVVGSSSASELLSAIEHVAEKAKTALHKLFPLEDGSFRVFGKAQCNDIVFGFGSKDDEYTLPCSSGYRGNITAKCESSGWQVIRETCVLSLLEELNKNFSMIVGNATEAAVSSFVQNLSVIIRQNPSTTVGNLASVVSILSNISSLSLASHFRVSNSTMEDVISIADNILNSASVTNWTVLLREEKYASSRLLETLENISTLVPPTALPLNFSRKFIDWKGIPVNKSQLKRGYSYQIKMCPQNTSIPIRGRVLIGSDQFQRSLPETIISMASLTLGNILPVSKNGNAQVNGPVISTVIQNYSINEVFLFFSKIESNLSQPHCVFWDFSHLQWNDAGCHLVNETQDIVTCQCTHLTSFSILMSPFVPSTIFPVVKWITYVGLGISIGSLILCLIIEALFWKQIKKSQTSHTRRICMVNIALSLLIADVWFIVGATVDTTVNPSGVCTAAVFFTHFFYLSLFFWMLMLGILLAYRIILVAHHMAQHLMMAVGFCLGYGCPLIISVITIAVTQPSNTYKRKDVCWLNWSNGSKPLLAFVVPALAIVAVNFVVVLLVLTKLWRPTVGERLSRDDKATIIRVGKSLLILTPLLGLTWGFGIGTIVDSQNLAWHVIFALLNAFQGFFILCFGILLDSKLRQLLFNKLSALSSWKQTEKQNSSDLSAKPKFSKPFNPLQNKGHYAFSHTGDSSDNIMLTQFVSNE
Description: (§1) To study the synthetic stalk peptide-induced G protein activation of ADGRD1 and ADGRF1, a BRET assay using TRUPATH biosensors was conducted to measure the proximal interaction between RLuc8 fused to the Gα subunit and GFP2 fused to the Gγ subunit. The TRUPATH suite of biosensors was obtained from Addgene (Addgene kit no. 1000000163) as a gift from B. Roth, including GαsS-RLuc8, Gαi1-RLuc8, Gβ3 and Gγ9-GFP2 as previously described.
(§2) The wild-type or mutant ADGRD1 and ADGRF1 were transiently co-transfected with plasmids encoding Gα-RLuc8 (GαsS-RLuc8 for Gs activation assay; Gαi1-RLuc8 for Gi activation assay), Gβ3 and Gγ9-GFP2 at a ratio of 2:1:1:1 (receptor plasmid, 800 ng; G protein subunit plasmids, 400 ng for each) in 2 ml HEK293F cells at a density of 1.2 × 10^6 cells per ml. Cell cultivation and receptor surface expression measurement were performed as described above. The cells were plated into 96-well white plates (40,000 cells per well) in 60 μl of assay buffer and incubated at 37 °C for 30 min. Then 10 μl of freshly prepared 50 μM coelenterazine 400a (Nanolight Technologies) was added. […] The cells were stimulated with 30 μl of synthetic stalk peptide at different concentrations and the BRET signals were monitored continuously five times. The last measurements were used in data analysis. The BRET ratios were calculated as the ratio of the GFP2 emission to RLuc8 emission.

ADGRD1 = biological target: T2, ADGRD1 (Homo sapiens, UniProt Q6QNK2); assay: BRET assay using TRUPATH biosensors, G protein activation of ADGRD1; format: cell-based; conditions: Gs, ADGRD1 WT, n = 3
T2 construct: Flag (N); expressed in transfected cells; host or cells: HEK293F
T2 sequence (Q6QNK2 26-874): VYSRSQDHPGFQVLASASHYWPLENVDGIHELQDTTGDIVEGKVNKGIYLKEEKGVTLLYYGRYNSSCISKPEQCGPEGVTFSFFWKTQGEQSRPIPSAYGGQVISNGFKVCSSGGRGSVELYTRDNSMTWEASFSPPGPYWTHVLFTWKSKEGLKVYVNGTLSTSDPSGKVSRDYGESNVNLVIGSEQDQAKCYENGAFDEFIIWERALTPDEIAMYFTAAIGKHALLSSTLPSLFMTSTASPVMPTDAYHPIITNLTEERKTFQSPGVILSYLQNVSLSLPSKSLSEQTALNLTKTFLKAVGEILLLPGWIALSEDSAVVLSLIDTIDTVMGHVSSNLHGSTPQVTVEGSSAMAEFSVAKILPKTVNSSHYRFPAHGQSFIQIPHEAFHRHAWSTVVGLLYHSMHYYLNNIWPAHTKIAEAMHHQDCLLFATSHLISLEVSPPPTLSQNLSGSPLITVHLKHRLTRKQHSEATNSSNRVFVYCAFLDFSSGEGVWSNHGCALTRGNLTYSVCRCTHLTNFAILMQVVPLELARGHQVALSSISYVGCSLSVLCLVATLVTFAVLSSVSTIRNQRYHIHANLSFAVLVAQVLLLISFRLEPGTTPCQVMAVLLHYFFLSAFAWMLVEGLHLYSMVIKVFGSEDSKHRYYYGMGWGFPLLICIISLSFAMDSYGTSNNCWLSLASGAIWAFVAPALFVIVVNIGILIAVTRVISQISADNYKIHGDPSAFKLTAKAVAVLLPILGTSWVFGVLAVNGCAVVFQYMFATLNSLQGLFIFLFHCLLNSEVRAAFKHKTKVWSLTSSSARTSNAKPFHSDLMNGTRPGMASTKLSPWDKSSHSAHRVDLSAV
Description: as §1, §2

[1] = read-out: pEC50 (mean ± s.e.m.) (converted)

Emax (mean ± s.e.m.) (ADGRF1): 110 ± 12 % of WT
EC50 (ADGRF1; [1]): 115 nM
Emax (mean ± s.e.m.) (ADGRD1): 67 ± 12 % of WT
EC50 (ADGRD1; [1]): 1260 nM
Sequence: TSFSILMSPFVP [pF1]
